Data taken from patent US8486961B2, “Pyrrolo[4,3,2-de]quinolin-8-amine compounds and methods of their preparation and use” (Wyeth LLC, priority 2008, dated 2013).
Where two headings read alike, the source gives them in different places.

How the values were obtained:
MDA468 cells = assay: In vitro cell growth assay (MTS), MDA468; assay type: cell-based, human
Method: (§1) Cells of human tumor lines LNCap and MDA468 were plated in 96-well culture plates at approximately 3000 cells per well. One day following plating, various doses of mTOR inhibitors were added to cells. Three days after drug treatment, viable cell densities were determined by metabolic conversion (by viable cells) of the dye MTS, a well-established cell proliferation assay. The assays were performed using an assay kit purchased from Promega Corp. (Madison, Wis.) following the protocol supplied with the kit. The MTS assay results were read in a 96-well plate reader by measuring absorbance at 490 nm. The effect of each treatment was calculated as percent of control growth relative to the vehicle-treated cells grown in the same culture plate. The drug concentration that conferred 50% inhibition of growth was determined as IC50 (μM).

LNCap cells = assay: In vitro cell growth assay (MTS), LNCap; assay type: cell-based, human
Method: as §1

mTOR = target: T1, mTOR (Homo sapiens, UniProt P42345); assay: mTOR kinase assay (DELFIA, purified enzyme); assay type: biochemical; settings: purified FLAG-TOR, 100 μM ATP, His6-S6K substrate; * = compounds 4 and 5 screened as a mixture
T1 construct: FLAG
Method: The routine human TOR assays with purified enzyme were performed in 96-well plates by DELFIA format as follows. Enzymes were first diluted in kinase assay buffer (10 mM Hepes (pH 7.4), 50 mM NaCl, 50 mM β-glycerophosphate, 10 mM MnCl2, 0.5 mM DTT, 0.25 μM microcystin LR, and 100 μg/mL BSA). To each well, 12 μL of the diluted enzyme were mixed briefly with 0.5 μL test inhibitor or control vehicle dimethylsulfoxide (DMSO). The kinase reaction was initiated by adding 12.5 μL kinase assay buffer containing ATP and His6-S6K to give a final reaction volume of 25 μL containing 800 ng/mL FLAG-TOR, 100 μM ATP and 1.25 μM His6-S6K. The reaction plate was incubated for 2 hours (linear at 1-6 hours) at room temperature with gentle shaking and then terminated by adding 25 μL Stop buffer (20 mM Hepes (pH 7.4), 20 mM EDTA, 20 mM EGTA). The DELFIA detection of the phosphorylated (Thr-389) His6-S6K was performed at room temperature using a monoclonal anti-P(T389)-p70S6K antibody (1A5, Cell Signaling) labeled with Europium-N1-ITC (Eu) (10.4 Eu per antibody, PerkinElmer). The DELFIA Assay buffer and Enhancement solution were purchased from PerkinElmer. 45 μL of the terminated kinase reaction mixture was transferred to a MaxiSorp plate (Nunc) containing 55 μL PBS. The His6-S6K was allowed to attach for 2 hours after which the wells were aspirated and washed once with PBS. 100 μL of DELFIA Assay buffer with 40 ng/mL Eu-P(T389)—S6K antibody was added. The antibody binding was continued for 1 hour with gentle agitation. The wells were then aspirated and washed 4 times with PBS containing 0.05% Tween-20 (PBST). 100 μL of DELFIA Enhancement solution was added to each well and the plates were read in a PerkinElmer Victor model plate reader. Data obtained were used to calculate enzymatic activity and enzyme inhibition by potential inhibitors. mTOR IC50 data (reported in μM) is provided in Table 1.

[1] = 72 h, MDA468 human tumor line, 3 days treatment, MTS, * = compounds 4 and 5 screened as a mixture, read-out: MDA 468 IC50
[2] = 72 h, LNCap human tumor line, 3 days treatment, MTS, * = compounds 4 and 5 screened as a mixture
[3] = Homo sapiens, LNCap cell growth

| Structure (SMILES) | IC50 (MDA468 cells; [1]) | IC50 (MDA468 cells; Homo sapiens, Example 8) | IC50 (LNCap cells; [2]) | IC50 (LNCap cells; [3]) | IC50 (mTOR) |
| --- | --- | --- | --- | --- | --- |
| CCC(=O)Nc1cc(N)c2c3c(cc(C(=O)/C=C/OC)nc13)C=N2 [Compound 1, (E)-N-(8-amino-4-(3-methoxyacryloyl)pyrrolo[4,3,2-de]quinolin-6-yl)-propionamide] | 85 nM | 50 to 800 nM | 48 nM | 20 to 300 nM | 1.5 nM |
| CO/C=C/C(=O)c1cc2c3c(c(N)cc(NC(=O)C(C)C)c3n1)N=C2 [Compound 2, (E)-N-(8-amino-4-(3-methoxyacryloyl)pyrrolo[4,3,2-de]quinolin-6-yl)isobutyramide] | 58 nM | 50 to 800 nM | 22 nM | 20 to 300 nM | 0.8 nM |
| CCCC(=O)Nc1cc(N)c2c3c(cc(C(=O)CCO)nc13)C=N2 [Compound 3, N-(8-amino-4-(3-hydroxypropanoyl)pyrrolo[4,3,2-de]quinolin-6-yl)butyramide] | > 12000 nM |  | > 12000 nM |  | > 4000 nM |
| CO/C=C/C(=O)c1cc2c3c(c(N)cc(NC(=O)CC(C)C)c3n1)N=C2 [Compound 4, (E)-N-(8-amino-4-(3-methoxyacryloyl)pyrrolo[4,3,2-de]quinolin-6-yl)-3-methylbutanamide] | 700 nM | 50 to 800 nM | 230 nM | 20 to 300 nM | 1.8 nM |
| CCC(C)C(=O)Nc1cc(N)c2c3c(cc(C(=O)/C=C/OC)nc13)C=N2 (stereo not drawn) [Compound 5, (E)-N-(8-amino-4-(3-methoxyacryloyl)pyrrolo[4,3,2-de]quinolin-6-yl)-2-methylbutanamide] | 700 nM |  | 230 nM |  | 1.8 nM |
| CC(C)C(=O)Nc1cc(N)c2c3c(cc(C(=O)CCO)nc13)C=N2 [Compound 6, N-(8-amino-4-(3-hydroxypropanoyl)pyrrolo[4,3,2-de]quinolin-6-yl)isobutyramide] | 1200 nM |  | 6500 nM |  | > 4000 nM |
| CCC(=O)Nc1cc(N)c2c3c(cc(C(=O)CCO)nc13)C=N2 [Compound 7, N-(8-amino-4-(3-hydroxypropanoyl)pyrrolo[4,3,2-de]quinolin-6-yl)propionamide] | 400 nM |  | 5000 nM |  | > 4000 nM |
| CC(C)CC(=O)Nc1cc(N)c2c3c(cc(C(=O)CCO)nc13)C=N2 [Compound 8, N-(8-amino-4-(3-hydroxypropanoyl)pyrrolo[4,3,2-de]quinolin-6-yl)-3-methylbutanamide] | 3500 nM |  | 2900 nM |  | 1500 nM |
| CCC(C)C(=O)Nc1cc(N)c2c3c(cc(C(=O)CCO)nc13)C=N2 (stereo not drawn) [Compound 9, N-(8-amino-4-(3-hydroxypropanoyl)pyrrolo[4,3,2-de]quinolin-6-yl)-2-methylbutanamide] | 7600 nM |  | 10000 nM |  | 3200 nM |
